How the values were obtained:
[1] = target: hGYS1 enzyme (recombinant hGYS1/GN1 protein) (Homo sapiens (Human), UniProt P13807); experiment: GYS1 coupled enzyme assay (PK/LDH); format: biochemical; details: hGYS1/GN1 50 nM, UDP-Glucose 0.8 mM, G6P 1 mM; geometric mean of at least 2 runs
[2] = target: hGYS2 enzyme (recombinant hGYS2/GN1 protein) (Homo sapiens (Human), UniProt P54840); experiment: GYS2 coupled enzyme assay (PK/LDH); format: biochemical; details: geometric mean of at least 2 assay runs on separate days, read-out: Avg_IC50
Method in brief: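 hGYS2/GN1 200 nM; UDP-Glc 2 mM; glycogen 0.2%; G6P 2 mM; PEP 2 mM, NADH 0.6 mM, PK/LDH 20 U/mL. 50 mM Tris pH 7.5, MgCl2, KCl, BSA, TCEP, 2.5% DMSO. Kinetic A340, 10 min. IC50 = geomean of ≥2 runs.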

[3] = tested on: hGYS1 enzyme / glycogen synthesis in HeLa cells; experiment: GYS1 cell based assay (glycogen synthesis, Glucose-glo); set-up: species or system human; details: Homo sapiens, HeLa, 24 h, 24 h incubation, 20 mM glucose, geometric mean of at least 2 runs
Method in brief: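 HeLa cells starved 24 h in medium containing only 1× Glutamax were plated onto compound in medium with 20 mM glucose (1% DMSO final) for 24 h, 37 °C, 5% CO2. Acid lysates were Tris-quenched, glucoamylase-digested (pH 5.3, 1 h, 37 °C) and read by Glucose-glo luminescence. IC50 came from Hill fits, as geometric mean of ≥2 runs.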

Chain of hGYS1 enzyme (recombinant hGYS1/GN1 protein) (P13807 whole entry): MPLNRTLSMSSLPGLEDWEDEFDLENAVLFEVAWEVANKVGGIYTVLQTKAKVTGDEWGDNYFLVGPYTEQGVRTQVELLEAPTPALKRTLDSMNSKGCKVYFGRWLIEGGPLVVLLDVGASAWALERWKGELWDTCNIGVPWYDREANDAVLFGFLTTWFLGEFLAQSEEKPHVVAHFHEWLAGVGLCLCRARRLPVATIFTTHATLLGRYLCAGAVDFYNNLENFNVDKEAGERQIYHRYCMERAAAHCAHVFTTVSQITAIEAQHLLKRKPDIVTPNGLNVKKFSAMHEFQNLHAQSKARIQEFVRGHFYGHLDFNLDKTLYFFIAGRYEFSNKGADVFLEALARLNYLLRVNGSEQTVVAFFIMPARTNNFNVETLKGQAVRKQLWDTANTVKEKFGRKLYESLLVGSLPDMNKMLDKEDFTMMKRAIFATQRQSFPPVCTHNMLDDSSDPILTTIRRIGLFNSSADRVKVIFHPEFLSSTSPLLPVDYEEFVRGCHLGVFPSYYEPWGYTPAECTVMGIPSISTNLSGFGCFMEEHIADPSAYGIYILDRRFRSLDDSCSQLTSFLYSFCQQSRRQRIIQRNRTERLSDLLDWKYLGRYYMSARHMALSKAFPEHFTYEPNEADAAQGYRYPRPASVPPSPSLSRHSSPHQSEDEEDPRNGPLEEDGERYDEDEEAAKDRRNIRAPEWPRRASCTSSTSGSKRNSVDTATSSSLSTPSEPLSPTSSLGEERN
Chain of hGYS1 enzyme (recombinant hGYS1/GN1 protein) (P46976 whole entry partner): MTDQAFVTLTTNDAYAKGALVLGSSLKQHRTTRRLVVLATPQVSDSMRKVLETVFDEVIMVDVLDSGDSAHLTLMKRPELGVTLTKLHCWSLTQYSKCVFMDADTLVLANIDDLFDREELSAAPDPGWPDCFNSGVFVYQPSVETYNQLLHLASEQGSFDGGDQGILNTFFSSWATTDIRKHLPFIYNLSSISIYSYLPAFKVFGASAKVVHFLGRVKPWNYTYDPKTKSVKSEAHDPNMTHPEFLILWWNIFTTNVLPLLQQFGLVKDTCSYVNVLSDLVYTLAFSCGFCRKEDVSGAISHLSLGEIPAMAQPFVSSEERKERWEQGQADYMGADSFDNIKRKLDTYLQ
Chain of hGYS2 enzyme (recombinant hGYS2/GN1 protein) (P54840 whole entry): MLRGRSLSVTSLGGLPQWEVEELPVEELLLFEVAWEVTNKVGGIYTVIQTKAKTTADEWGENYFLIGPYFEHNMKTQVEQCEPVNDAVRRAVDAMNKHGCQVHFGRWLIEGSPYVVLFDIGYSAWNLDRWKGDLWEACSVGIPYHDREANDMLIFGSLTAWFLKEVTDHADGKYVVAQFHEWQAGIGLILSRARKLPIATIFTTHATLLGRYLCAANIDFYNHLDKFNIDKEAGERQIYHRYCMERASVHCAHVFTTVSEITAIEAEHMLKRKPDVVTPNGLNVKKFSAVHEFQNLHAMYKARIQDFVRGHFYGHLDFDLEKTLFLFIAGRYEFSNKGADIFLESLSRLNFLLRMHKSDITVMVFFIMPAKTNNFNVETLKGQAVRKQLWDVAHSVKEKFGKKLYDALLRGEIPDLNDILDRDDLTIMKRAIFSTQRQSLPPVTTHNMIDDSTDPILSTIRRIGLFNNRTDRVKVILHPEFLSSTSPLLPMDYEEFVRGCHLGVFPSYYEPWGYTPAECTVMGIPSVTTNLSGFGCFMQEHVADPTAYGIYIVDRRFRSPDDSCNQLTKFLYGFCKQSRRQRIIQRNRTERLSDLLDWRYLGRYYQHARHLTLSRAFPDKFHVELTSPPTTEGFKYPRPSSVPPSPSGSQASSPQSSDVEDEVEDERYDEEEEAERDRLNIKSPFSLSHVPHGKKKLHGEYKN
Chain of hGYS2 enzyme (recombinant hGYS2/GN1 protein) (P46976 whole entry partner): as the sequence (P46976 whole entry partner) above

| IC50 [1] | IC50 [2] | IC50 [3] | Structure (SMILES) |
| --- | --- | --- | --- |
| 5 nM | > 100000 nM | 150 nM | CCn1c(=O)c(C)cn(CC(=O)N2C[C@H](F)C[C@H]2C(=O)N[C@@H](c2ccccc2)c2ccc(C3CC3)c(F)n2)c1=O [Compound 733, (2S,4R)-N-[(S)-(5-cyclopropyl-6-fluoropyridin-2-yl)(phenyl)methyl]-1-[2-(3-ethyl-5-methyl-2,4-dioxo-1,2,3,4-tetrahydropyrimidin-1-yl)acetyl]-4-fluoropyrrolidine-2-carboxamide] |
| 26 nM | > 100000 nM | 1730 nM | O=C(N[C@@H](c1ccccc1)c1ccc(C2CC2)c(F)n1)[C@@H]1C[C@@H](F)CN1C(=O)Cc1ccc(=O)[nH]c1 [Compound 734, (2S,4R)-N-[(S)-(5-cyclopropyl-6-fluoropyridin-2-yl)(phenyl)methyl]-4-fluoro-1-[2-(6-oxo-1,6-dihydropyridin-3-yl)acetyl]pyrrolidine-2-carboxamide] |
| 5 nM | > 100000 nM | 270 nM | CCn1c(=O)ccn(CC(=O)N2C[C@H](F)C[C@H]2C(=O)N[C@@H](c2ccccc2)c2ccc(C3CC3)c(F)n2)c1=O [Compound 735, (2S,4R)-N-[(S)-(5-cyclopropyl-6-fluoropyridin-2-yl)(phenyl)methyl]-1-[2-(3-ethyl-2,4-dioxo-1,2,3,4-tetrahydropyrimidin-1 yl)acetyl]-4-fluoropyrrolidine-2-carboxamide] |
| 20 nM | > 100000 nM | 780 nM | CCn1cc(CC(=O)N2C[C@H](F)C[C@H]2C(=O)N[C@@H](c2ccccc2)c2ccc(C3CC3)c(F)n2)ccc1=O [Compound 736, (2S,4R)-N-[(S)-(5-cyclopropyl-6-fluoropyridin-2-yl)(phenyl)methyl]-1-[2-(1-ethyl-6-oxo-1,6-dihydropyridin-3-yl)acetyl]-4-fluoropyrrolidine-2-carboxamide] |
| 356 nM | > 100000 nM | 4530 nM | CC(C)c1ccc([C@@H](NC(=O)[C@@H]2C[C@@H](F)CN2S(=O)(=O)Cc2cnn[nH]2)c2ccccc2)cc1F [Compound 772, (2S,4R)-4-fluoro-N-[(S)-[3-fluoro-4-(propan-2-yl)phenyl](phenyl)methyl]-1-[(1H-1,2,3-triazol-5-yl)methanesulfonyl] pyrrolidine-2-carboxamide] |
| 9 nM | > 100000 nM | 280 nM | CC(C)c1ccc([C@@H](NC(=O)[C@@H]2C[C@@H](F)CN2C(=O)CCn2nc3ccccn3c2=O)c2ccccc2)nc1F [Compound 780, (2S,4R)-4-fluoro-N-[(S)-[6-fluoro-5-(propan-2-yl)pyridin-2-yl](phenyl)methyl]-1-{3-{3-oxo-2H,3H-[1,2,4]triazolo[4,3-a]pyridin-2-yl}propanoyl)pyrrolidine-2-carboxamide] |
| 11 nM | > 100000 nM | 270 nM | CC(C)c1ccc([C@@H](NC(=O)[C@@H]2C[C@@H](F)CN2C(=O)Cn2cccn2)c2ccccc2)nc1F [Compound 781, (2S,4R)-4-fluoro-N-[(S)-[6-fluoro-5-(propan-2-yl)pyridin-2-yl](phenyl)methyl]-1-[2-(1H-pyrazol-1-yl)acetyl]pyrrolidine-2-carboxamide] |
| 11 nM | > 100000 nM | 220 nM | Cc1ccnn1CC(=O)N1C[C@H](F)C[C@H]1C(=O)N[C@@H](c1ccccc1)c1ccc(C(C)C)c(F)n1 [Compound 782, (2S,4R)-4-fluoro-N-[(S)-[6-fluoro-5-(propan-2-yl)pyridin-2-yl](phenyl)methyl]-1-[2-(5-methyl-1H-pyrazol-1-yl)acetyl] pyrrolidine-2-carboxamide] |
| 5 nM | > 100000 nM | 80 nM | CC(C)c1ccc([C@@H](NC(=O)[C@@H]2C[C@@H](F)CN2C(=O)Cn2nccc2C(F)F)c2ccccc2)nc1F [Compound 783, (2S,4R)-1-{2-[5-(difluoromethyl)-1H-pyrazol-1-yl]acetyl}-4-fluoro-N-[(S)-[6-fluoro-5-(propan-2-yl)pyridin-2-yl](phenyl)methyl] pyrrolidine-2-carboxamide] |
| 5 nM | > 100000 nM | 310 nM | Cc1cc(CC(=O)N2C[C@H](F)C[C@H]2C(=O)N[C@@H](c2ccccc2)c2ccc(C(C)C)c(F)n2)c[nH]c1=O [Compound 784, (2S,4R)-4-fluoro-N-[(S)-[6-fluoro-5-(propan-2-yl)pyridin-2-yl](phenyl)methyl]-1-[2-(5-methyl-6-oxo-1,6-dihydropyridin-3-yl)acetyl]pyrrolidine-2-carboxamide] |
| 6 nM | > 100000 nM | 130 nM | CC(C)c1ccc([C@@H](NC(=O)[C@@H]2C[C@@H](F)CN2C(=O)Cn2ccc(=O)[nH]c2=O)c2ccccc2)nc1F [Compound 785, (2S,4R)-1-[2-(2,4-dioxo-1,2,3,4-tetrahydropyrimidin-1-yl)acetyl]-4-fluoro-N-[(S)-[6-fluoro-5-(propan-2-yl)pyridin-2-yl](phenyl)methyl] pyrrolidine-2-carboxamide] |
| 3 nM | > 100000 nM | 50 nM | CCn1c(=O)ccn(CC(=O)N2C[C@H](F)C[C@H]2C(=O)N[C@@H](c2ccccc2)c2ccc(C(C)C)c(F)n2)c1=O [Compound 786, (2S,4R)-1-[2-(3-ethyl-2,4-dioxo-1,2,3,4-tetrahydropyrimidin-1-yl)acetyl]-4-fluoro-N-[(S)-[6-fluoro-5-(propan-2-yl)pyridin-2-yl](phenyl)methyl] pyrrolidine-2-carboxamide] |
| 20 nM | > 100000 nM | 340 nM | CC(C)c1ccc([C@@H](NC(=O)[C@@H]2C[C@@H](F)CN2C(=O)Cn2cc(C(F)(F)F)cn2)c2ccccc2)nc1F [Compound 788] |
| 10 nM | > 100000 nM | 280 nM | CC(C)c1ccc([C@@H](NC(=O)[C@@H]2C[C@@H](F)CN2C(=O)Cn2ccc(C(F)F)n2)c2ccccc2)nc1F [Compound 789, (2S,4R)-1-{2-[3-(difluoromethyl)-1H-pyrazol-1-yl]acetyl}-4-fluoro-N-[(S)-[6-fluoro-5-(propan-2-yl)pyridin-2-yl](phenyl)methyl] pyrrolidine-2-carboxamide] |
| 8 nM | > 100000 nM | 250 nM | CC(C)c1ccc([C@@H](NC(=O)[C@@H]2C[C@@H](F)CN2C(=O)Cn2ccc(C(F)(F)F)n2)c2ccccc2)nc1F [Compound 790, (2S,4R)-4-fluoro-N-[(S)-[6-fluoro-5-(propan-2-yl)pyridin-2-yl](phenyl)methyl]-1-{2-[3-(trifluoromethyl)-1H-pyrazol-1-yl]acetyl} pyrrolidine-2-carboxamide] |
| 7 nM | > 100000 nM | 390 nM | CC(C)c1ccc([C@@H](NC(=O)[C@@H]2C[C@@H](F)CN2C(=O)Cc2ccc(=O)[nH]c2)c2ccccc2)nc1F [Compound 791, (2S,4R)-4-fluoro-N-[(S)-[6-fluoro-5-(propan-2-yl)pyridin-2-yl](phenyl)methyl]-1-[2-(6-oxo-1,6-dihydropyridin-3-yl)acetyl]pyrrolidine-2-carboxamide] |
| 6 nM | > 100000 nM | 210 nM | CCn1cc(CC(=O)N2C[C@H](F)C[C@H]2C(=O)N[C@@H](c2ccccc2)c2ccc(C(C)C)c(F)n2)ccc1=O [Compound 792, (2S,4R)-1-[2-(1-ethyl-6-oxo-1,6-dihydropyridin-3-yl)acetyl]-4-fluoro-N-[(S)-[6-fluoro-5-(propan-2-yl)pyridin-2-yl](phenyl)methyl] pyrrolidine-2-carboxamide] |

— patent US11814367B2, “Inhibitors of glycogen synthase 1 (GYS1) and methods of use thereof” (Maze Therapeutics, Inc., priority 2021, dated 2023)
